According to ChEMBL document CHEMBL1811820, “Vicenin-2, a potential anti-inflammatory constituent of Urtica circularis” (J Nat Prod, 2011):
Active and inactive are the calls of the source. The rule behind the calls is not given here.

Experiments:
[1] = Pro-inflammatory activity in mouse peritoneal macrophage assessed as increased NO production at 1000 ug/mL after 10 mins using Griess reagent by spectrophotometry in presence of LPS; assay type: ADME, cell-based; details: peritoneal macrophage cell
[2] = Antiinflammatory activity in mouse peritoneal macrophage assessed as increase in LPS-stimulated TNFalpha release at 100 to 1000 ug/mL after 24 hrs by ELISA relative to control in presence of LPS; assay type: functional, Peritoneal macrophage cell
[3] = tested on: Peritoneal macrophage cell; test: Antiinflammatory activity in mouse peritoneal macrophage assessed as decrease in LPS-stimulated TNFalpha release at 0.01 to 10 ug/mL after 24 hrs by ELISA relative to control in presence of LPS; assay type: functional, cell-based
[4] = molecular target: Transcription factor p65 (Mus musculus) (UniProt Q04207); test: Inhibition of NF-kappaB p65 nuclear translocation in LPS-stimulated mouse peritoneal macrophage at 0.01 to 10 ug/mL after 24 hrs by nuclear absorbance assay
[5] = molecular target: Transcription factor p65 (Mus musculus) (UniProt Q04207); test: Inhibition of NF-kappaB p65 nuclear translocation in LPS-stimulated mouse peritoneal macrophage at 10 to 500 ug/mL after 24 hrs by nuclear absorbance assay
[6] = molecular target: Transcription factor p65 (Mus musculus) (UniProt Q04207); test: Increase in NF-kappaB p65 nuclear translocation in LPS-stimulated mouse peritoneal macrophage at 1000 ug/mL after 24 hrs by nuclear absorbance assay
[7] = Antiinflammatory activity in mouse peritoneal macrophage assessed as decreased LPS-stimulated NO production at 0.01 to 1 ug/mL after 10 mins using Griess reagent by spectrophotometry; assay type: functional, Peritoneal macrophage cell
[8] = Antiinflammatory activity in mouse peritoneal macrophage assessed as decreased LPS-stimulated NO production at 10 to 500 ug/mL after 10 mins using Griess reagent by spectrophotometry; assay type: functional, Peritoneal macrophage cell
Mus musculus = test: Antiinflammatory activity against Swiss mouse assessed as inhibition of 12-O-tetradecanoylphorbol acetate-induced ear edema at 1 mg/ear, topically administered measured after 4 hrs of 12-O-tetradecanoylphorbol acetate-challenge; assay type: functional
Rattus norvegicus = test: Antiinflammatory activity against Sprague-Dawley rat assessed as inhibition of carrageenan-induced paw edema at 10 mg/kg, ip administered 30 mins prior to carrageenan challenge measured after 5 hrs; assay type: functional; details: route intraperitoneal

Sequence of Transcription factor p65 (Mus musculus) (Q04207 whole entry): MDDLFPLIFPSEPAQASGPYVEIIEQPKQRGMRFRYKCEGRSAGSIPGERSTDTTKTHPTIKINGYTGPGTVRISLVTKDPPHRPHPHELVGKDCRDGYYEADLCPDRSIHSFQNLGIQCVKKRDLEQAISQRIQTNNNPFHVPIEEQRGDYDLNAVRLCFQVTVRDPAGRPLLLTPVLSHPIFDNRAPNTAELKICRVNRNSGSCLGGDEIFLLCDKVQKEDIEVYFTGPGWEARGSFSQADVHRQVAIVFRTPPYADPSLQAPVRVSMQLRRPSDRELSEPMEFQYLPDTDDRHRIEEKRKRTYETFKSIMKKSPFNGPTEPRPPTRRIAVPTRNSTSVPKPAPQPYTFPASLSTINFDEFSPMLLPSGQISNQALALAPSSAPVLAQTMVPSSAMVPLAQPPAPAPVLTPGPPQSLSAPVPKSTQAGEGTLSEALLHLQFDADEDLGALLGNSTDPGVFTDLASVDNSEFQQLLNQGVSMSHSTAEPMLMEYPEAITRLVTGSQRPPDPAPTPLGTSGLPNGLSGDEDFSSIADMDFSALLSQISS

Row | Compound | Activity [1] | Activity [2] | Activity [3] | inhibition [4] | inhibition [5] | Activity [6] | inhibition (INH) [7] | inhibition (INH) [8] | inhibition (INH) (Mus musculus) | inhibition in vivo at 10 mg/kg (Rattus norvegicus)
1 | O=c1cc(-c2ccc(O)cc2)oc2c([C@@H]3O[C@H](CO)[C@@H](O)[C@H](O)[C@H]3O)c(O)c([C@@H]3O[C@H](CO)[C@@H](O)[C@H](O)[C@H]3O)c(O)c12 | Toxic | 62% | Active | Active | inactive | inactive | 70% | 16% | – | –
2 | COc1ccc2c(c1)c(CC(=O)O)c(C)n2C(=O)c1ccc(Cl)cc1 [INDOMETHACIN] | – | – | – | – | – | – | – | – | 87.3% | 38.4%
